The CheMixHub viscosity set

Assay: xn = mol fraction of the nth substance listed

O=[N+]([O-])c1ccccc1 + CCCC(C)O
viscosity [mPa·s], 100 kPa
Details	x1 = 0.081	x1 = 0.1601	x1 = 0.24	x1 = 0.35	x1 = 0.4401	x1 = 0.56	x1 = 0.6503	x1 = 0.7402	x1 = 0.8504	x1 = 0.9404
293.15 K	3.323	2.827	2.444	2.095	1.931	1.863	1.867	1.914	1.999	2.054
298.15 K	2.753	2.364	2.068	1.809	1.697	1.67	1.684	1.738	1.821	1.878
303.15 K	2.317	2.016	1.794	1.598	1.517	1.503	1.523	1.579	1.66	1.718
308.15 K	1.993	1.776	1.608	1.454	1.385	1.36	1.377	1.421	1.497	1.568
313.15 K	1.711	1.545	1.417	1.301	1.249	1.239	1.259	1.302	1.378	1.451
318.15 K	1.497	1.375	1.28	1.188	1.148	1.135	1.15	1.188	1.26	1.338
323.15 K	1.311	1.227	1.159	1.089	1.055	1.044	1.057	1.091	1.16	1.238

CCCCCCCC + CCCCCC
viscosity [mPa·s]
Details	x2 = 0.1072	x2 = 0.2073	x2 = 0.2375	x2 = 0.3034	x2 = 0.4038	x2 = 0.5101	x2 = 0.6111	x2 = 0.7056	x2 = 0.805	x2 = 0.9018
294.65 K, 100 kPa	–	–	0.432	–	–	–	–	–	–	–
298.15 K, 101.33 kPa	0.4782	0.4598	–	0.4414	0.4124	0.392	0.3697	0.351	0.3326	0.3172

CCCCCO + CCCCCC
viscosity [mPa·s], 101 kPa
Details	298.15 K	313.15 K
x1 = 0.0122	0.302	–
x1 = 0.0218	0.305	–
x1 = 0.0272	0.307	–
x1 = 0.0424	0.312	–
x1 = 0.0642	0.321	–
x1 = 0.0706	0.324	–
x1 = 0.0889	0.333	–
x1 = 0.0978	0.337	–
x1 = 0.124	0.35	–
x1 = 0.1377	0.357	–
x1 = 0.1474	0.362	–
x1 = 0.1677	0.371	0.318
x1 = 0.1838	0.382	–
x1 = 0.1966	0.39	–
x1 = 0.2033	0.395	–
x1 = 0.2353	0.423	0.356
x1 = 0.3342	0.518	0.427
x1 = 0.4494	0.677	0.545
x1 = 0.5434	0.874	0.668
x1 = 0.6407	1.19	0.893
x1 = 0.7344	1.555	1.134
x1 = 0.8437	2.164	1.5
x1 = 0.9129	2.715	1.843
